# How the values were obtained:
# [1] = system: spinal cord impact model; assay: Motor dysfunction inhibitory action in spinal cord impact model (treadmill maximum walking distance); format: in vivo, rat
# Method: A male Wistar rat (about 250 g) was placed in a supine position under anesthesia with sodium pentobarbital (40 mg/kg, i.p.). After partial laminectomy to remove the fifth lumber spine, a silicon rubber (height: 1 mm, length: 4 mm, and width: 1.25 mm) was inserted in the fourth and sixth lumber spines.
# After the operation, the maximum walking distance was measured using a treadmill on Day 1, 2, 3, 5, 7 and 14.
# That is, the treadmill was run at a speed starting from 10 m/min, with an increment at a rate of 5 m/min every 3 minutes thereafter until the time when the animal dropped from the walking belt and could not walk any further. The walking distance was calculated from the time when the animal could not walk any further.
# [2] = system: spinal cord injury crush lesion model; assay: Motor dysfunction in spinal cord injury (crush lesion model, modified Tarlov scale); format: in vivo, rat; details: 10 mg/kg, versus vehicle control group
# Method: A male Wistar rat (about 250 to 300 g) was subject to dorsal median incision and laminectomy to remove thoracic spine (T11) under anesthesia with sodium pentobarbital and then the dura mater was exposed. A metal pole (diameter: 3 mm, length: 40 mm, weight: 3.8 g) was placed on the dura mater and a load of 10 g was dropped from a height of 10 cm through a cylinder to prepare a crush lesion model. Thereafter, the muscle layer and skin were sutured. The behavioral deficit was evaluated using modifications of Tarlov scale. That is, the evaluation was made based on mean scores of both hind legs according to the following scores. Neurologic scores: 0 Complete paralysis of hind legs 1 Slight movements of hind legs were observed. 2 Movements of hind legs were clear but the body weight could not be supported so that autonomic movement was impossible. 3 The animal crept and could not support the body weight. 4 The animal could support the body weight when standing or walking. However, clearly disabled. 5 Posture and walking ability are close to those of normal animals.
# [3] = system: cerebellar granule cells (CGC); assay: cells; format: cell-based; details: for Age-induced apoptosis of CGC: added at 7 DIV, agent 0.03 μM, THA 10 μM
# Method: A) Preparation of primary culture cerebellar granule cells (CGC)
# According to the method by Ishitani et al., CGC was prepared as follows (Ishitani et al., J. Neurochem., 66:928-35, 1996).
# Cerebellum was excised from an 8-day old Sprague-Dawley rat and cut to 0.4 mm square cubes using Mcllawin tissue chopper. Further, the cubes were digested at 37° C. for 15 minutes in a 0.025% trypsin-containing Krebs phosphate buffer (KPB).
# After the reaction was stopped with KPB containing 0.008% soybean trypsin inhibitor and 0.0016% deoxyribonuclease I, the digested cubes were triturated in KPB containing 0.01% deoxyribonuclease I and 0.05% soybean trypsin inhibitor using a convergent Pasteur pipette to obtain dispersed CGC.
# The cells were suspended in a basal modified Eagle's medium (BME) containing 10% fetal calf serum (FCS), 2 mM glutamine, 50 μg/ml gentamycin and 25 mM potassium chloride (KCl), and seeded on a plastic dish (35 mm) coated with poly-L-lysine (molecular weight: 3-7×10^4, 100 μg/ml) to a cell density of 2.1×10^5 live cells/cm^2.
# Under 5% carbon dioxide (CO2), culture was started at 37° C. and after 18 to 24 hours cytosine arabinofuranoside (10 μM) for preventing the growth of non-neuronal cells was added and culture was continued. At 7 DIV (days in vitro), various chemicals were added and thereafter, culture was continued in the same medium.
# B) Measurement of viability by live double staining method with FDA-PI
# CGC after desired culture days was washed twice with 2 ml of Locke's solution (154 mM NaCl, 5.6 mM KCl, 2.3 mM CaCl2, 1.2 mM MgSO4, 5 mM HEPES, 5.6 mM glucose, 3.6 mM NaHCO3, pH 7.4) and then stained with 0.0008% fluorescein diacetate (FDA) and 0.0002% propidium iodide (PI) for 3 to 5 minutes.
# Fluorescent observation was performed using epi-illuminated fluorescent microscope (Olympus, IMT2-RFL) equipped with a dichroic mirror for B excitement (IMT2-DMB), an auxiliary excitation filter (EY455) and an auxiliary filter (O530).
# FDA was decomposed by an esterase in the living cells to emit fluorescence (fluorescein) from green to yellow fluorescence, on the other hand PI permeates through dead cell membranes and binds with DNA to emit from red to brown fluorescence, so that the both fluorescences can be observed simultaneously using the above-described fluorescence microscopy.
# Viability was calculated according to the following formula.
# Viability=[FDA stained cell number/(FDA stained cell number+PI stained cell number)]×100
# [4] = system: GAPDH mRNA; assay: GAPDH mRNA expression in CGC, Northern blotting analysis; format: cell-based, rat; details: addition at 7 DIV; measured at 15 DIV (CGC)
# Method: Preparation of the primary culture cerebellar granule cells (CGC) was performed in accordance with Test Example 3 A).
# Then, according to the method of Fukamauchi et al., total RNA was extracted from CGC of the desired culture day number. The total RNA (9 μg/lane) was electrophoresed on 1.2% agarose formaldehyde gel and transferred to a nylon membrane (Hybond-N, Amersham). Thereafter, it was subjected to prehybridization at 42° C. for 3 to 5 hours in a solution containing 5×Denhardt's solution (0.1% Ficol 400, 0.1% polyvinyl pyrrolidone, 0.1% BSA), 50% formamide, 50 μg/ml salmon testis DNA, and 0.5% SDS (Fukamauchi et al., J. Neurochem., 56:716-9, 1991, Sunaga et al., Neurosci. Lett., 163:27-30, 1993).
# Using a Multi prime DNA labelling kit (Amersham), human GAPDH cDNA probe (Clontech, Palo Alto, Calif., U.S.A.) labeled with [α-^32P] deoxycytidine 5′-triphosphate (3,000 Ci/mm pl) was thermally denatured and thereafter added to the prehybridization solution, followed by hybridization at 42° C. for 24 hours.
# The membrane was fully washed at 60° C. for 10 minutes in 0.1% SDS containing 0.1×SSC ([…], pH 7.0), exposed on a high-sensitivity X-ray film (IPSO 3000, Fuji) to prepare an autoradiogram. Quantitative analysis was performed using a CCD type image analyzer (BIOPROFIL, M&S).
# [5] = system: GAPDH protein; assay: GAPDH protein expression in CGC, SDS-PAGE and Western blotting analyses; format: cell-based, rat; details: process of age-induced cell death
# Method: The cultured cells of the desired culture day number were washed three times with 2 ml of PBS and then stripped off by a rubber policeman and the cells were recovered by centrifugation at 188×G at 4° C. for 5 minutes. The cells were resuspended in ice-cooled 50 mM Tris-HCl buffer (pH 7.4) and the cell membranes were destroyed by sonication.
# The homogenate was centrifuged at 2×10^5×G at 4° C. for 30 minutes to obtain a precipitate (insoluble fraction (pellet)), which was resuspended in the same buffer and then was subjected to quantitative determination of protein together with the supernatant (soluble “supernatant”). […]
# The gel after the electrophoresis was stained with 0.1% Coomassie blue. The quantitative analysis of the amount of 38-kDa protein band was performed using a CCD type image analyzer (BIOPROFIL, N&S). […]
# The PDVF membrane after the transcription was treated in 0.5% skim milk containing TBS-T (20 mM Tris, 137 mM NaCl, 0.05% Tween 20, pH 7.4) for 60 minutes to effect blocking, and then was allowed to react at room temperature for 60 minutes in TBS-T containing primary antibody (anti-rabbit GAPDH monoclonal antibody diluted to 1:15000). […] After washing the PVDF membrane, quantitative determination of GAPDH protein was performed on a high-sensitivity X-ray film using a detector for chemiluminescence (Renaissance TM, NEN).
# [6] = Acute toxicity, rat, intravenous administration; format: in vivo
# [7] = system: 30 types or more of surface receptors inclusive of overactivated NMDA receptors; assay: Influence on surface receptors in age-induced apoptosis of CGC
Structure (SMILES),"Maximum Walking Distance ([1]; 1 mg/Kg, Day 2 after administration)","Maximum Walking Distance ([1]; 1 mg/Kg, Day 4 after administration)","Maximum Walking Distance ([1]; 1 mg/Kg, Day 11 after administration)","Maximum Walking Distance ([1]; 10 mg/Kg orally, Day 2 after administration)","Maximum Walking Distance ([1]; 10 mg/Kg orally, Day 4 after administration)","Maximum Walking Distance ([1]; 10 mg/Kg orally, Day 11 after administration (day 14 after operation))","Maximum Walking Distance ([1]; 10 mg/Kg orally, Day 11 after administration (day 14 after operation), listed as N-[3-[N-(4-chlorophenylmethyl)carbamoyl]propanoyl]-L-prolinal)","Influence on the autonomic movement and sensitivity to pain ([1]; rat, spinal cord impact model)",Degree of recovery of motor dysfunction (neurologic score) ([2]; day 9 up to day 21 of the operation),Change in body weight after the operation [2],"viability at 0.03 µM ([3]; Rattus norvegicus, 0.03 μM added at 7 DIV, at 17 DIV)",Age-induced apoptosis of CGC [3],Concentration exhibiting a protective action to neurons ([3]; at 17 DIV),Increase in GAPDH mRNA [4],Increase in the 38-kDa protein (GAPDH) in cell membrane fraction [5],Acute toxicity (LD50) [6],Influence on surface receptors [7],Inhibition of the cell death ([3]; 1 μM),Inhibition of the cell death ([3]; 10 μM)
"O=C[C@@H]1CCCN1C(=O)CCC(=O)NCc1ccc(Cl)cc1 [Agent of invention, N-[3-[N-(4-chlorophenylmethyl)carbamoyl]propanoyl]-L-prolinal]",237 ± 49 m,414 ± 58 m,347 ± 77 m,329 ± 15 m,455 ± 34 m,408 ± 30 m,408±30 m,no influence,tended to be superior as compared with the vehicle control group,tended to be superior to the vehicle control group,92 ± 4.4%,inhibited,several,completely inhibited,inhibited the increase,200 mg/kg body weight,no influence,–,–
"Nc1c2c(nc3ccccc13)CCCC2 [THA, 9-amino-1,2,3,4-tetrahydroacridine, reference compound]",–,–,–,–,–,–,–,–,–,–,–,inhibited,–,–,–,–,–,about 30%,almost completely

# — US6348488B1, “Remedies for motor dysfunction and GAPDH expression inhibitors” (Ono Pharmaceutical Co., Ltd., priority 1998, dated 2002)
